# Assay results published in patent US10710978B2, “STK4 inhibitors for treatment of hematologic malignancies” (Dana-Farber Cancer Institute, Inc., priority 2015, dated 2020).
# Several values for one entry are separate records, joined by “and”; a condition that tells them apart may be missing. Equal values may be shown once.
# How the values were obtained:
# Experiment in all cases: Z-lyte biochemical IC50 assay (Invitrogen)
# Conditions in all cases: ATP concentration matched the Km
# STK3 (MST2) = STK3 (MST2) (Homo sapiens (Human), UniProt Q13188)
# Procedure: (§1) STK4 (MST1), STK3 (MST2); STK24 (MST3) and MST4 Assays
# (§2) Biochemical IC50s were measured at Invitrogen using Z-lyte technology. Briefly, for STK4, the 2×STK4 (MST1)/Ser/Thr 07 mixture was prepared in 50 mM HEPES pH 7.5, 0.01% BRIJ35, 10 mM MgCl2, 1 mM EGTA. The final 10 μL Kinase Reaction consisted of 6.25-160 ng STK4 (MST1) and 2 μM Ser/Thr 07 in 50 mM HEPES pH 7.5, 0.01% BRIJ-35, 10 mM MgCl2, 1 mM EGTA. After the 1 hour Kinase Reaction incubation, 5 μL of a 1:100000 dilution of Development Reagent A was added. Compounds were screened in a 10 point titration with 3-fold serial dilutions starting at a concentration of 10 μM. The biochemical IC50s against other STK family members were measured similarly. The ATP concentration used matched the Km for each kinase.
# STK4 (MST1) = STK4 (MST1) (Homo sapiens (Human), UniProt Q13043)
# Procedure: as §1, §2
# STK24 (MST3) = STK24 (MST3) (Homo sapiens (Human), UniProt Q9Y6E0)
# Procedure: as §1, §2
# Chain of STK24 (MST3) (Q9Y6E0 whole entry): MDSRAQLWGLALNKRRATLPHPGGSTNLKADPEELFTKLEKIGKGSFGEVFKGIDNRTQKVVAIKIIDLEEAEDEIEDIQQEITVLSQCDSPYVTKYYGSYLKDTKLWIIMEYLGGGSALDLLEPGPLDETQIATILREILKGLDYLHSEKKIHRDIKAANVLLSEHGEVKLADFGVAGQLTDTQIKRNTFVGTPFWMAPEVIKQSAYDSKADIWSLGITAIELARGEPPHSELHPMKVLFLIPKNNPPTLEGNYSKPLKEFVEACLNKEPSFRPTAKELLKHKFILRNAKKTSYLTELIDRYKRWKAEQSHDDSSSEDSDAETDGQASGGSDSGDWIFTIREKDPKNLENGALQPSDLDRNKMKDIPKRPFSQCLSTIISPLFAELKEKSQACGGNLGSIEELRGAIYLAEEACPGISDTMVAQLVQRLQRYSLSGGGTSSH
# Chain of STK4 (MST1) (Q13043 whole entry): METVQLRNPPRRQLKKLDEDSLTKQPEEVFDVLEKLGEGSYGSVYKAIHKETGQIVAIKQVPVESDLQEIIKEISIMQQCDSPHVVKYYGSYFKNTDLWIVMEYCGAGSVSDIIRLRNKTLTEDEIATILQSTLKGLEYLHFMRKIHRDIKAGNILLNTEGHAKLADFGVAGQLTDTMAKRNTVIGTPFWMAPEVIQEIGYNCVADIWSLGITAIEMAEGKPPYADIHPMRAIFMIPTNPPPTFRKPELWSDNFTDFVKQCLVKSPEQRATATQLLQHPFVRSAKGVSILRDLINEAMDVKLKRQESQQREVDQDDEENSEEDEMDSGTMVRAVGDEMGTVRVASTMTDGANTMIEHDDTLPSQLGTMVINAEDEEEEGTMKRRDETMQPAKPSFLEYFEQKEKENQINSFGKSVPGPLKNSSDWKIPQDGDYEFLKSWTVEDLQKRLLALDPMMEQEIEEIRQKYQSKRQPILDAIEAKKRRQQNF
# Chain of STK3 (MST2) (Q13188 whole entry): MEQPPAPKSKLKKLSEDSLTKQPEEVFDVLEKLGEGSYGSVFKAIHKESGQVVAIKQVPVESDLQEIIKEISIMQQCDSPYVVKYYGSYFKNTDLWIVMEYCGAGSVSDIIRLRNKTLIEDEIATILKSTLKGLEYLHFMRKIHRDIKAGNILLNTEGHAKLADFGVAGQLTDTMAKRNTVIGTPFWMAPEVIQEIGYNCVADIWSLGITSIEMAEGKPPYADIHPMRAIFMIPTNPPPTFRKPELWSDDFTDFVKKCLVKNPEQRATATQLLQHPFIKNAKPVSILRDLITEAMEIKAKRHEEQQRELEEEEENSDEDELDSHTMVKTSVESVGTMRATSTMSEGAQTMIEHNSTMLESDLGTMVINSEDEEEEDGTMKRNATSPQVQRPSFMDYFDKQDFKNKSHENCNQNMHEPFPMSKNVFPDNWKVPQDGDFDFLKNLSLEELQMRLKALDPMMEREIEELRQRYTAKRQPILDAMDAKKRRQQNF
Structure (SMILES),IC50 (STK3 (MST2)) [nM],IC50 (STK4 (MST1)),IC50 (STK24 (MST3)) [nM]
"Nc1ncc(-c2scnc2Cl)cc1-c1ccc2c(c1)CCNC2=O [Compound I-76, 6-(2-amino-5-(4-chlorothiazol-5-yl)pyridin-3-yl)-3,4-dihydroisoquinolin-1(2H)-one]",40 to 200,< 40 nM and 40 to 200 nM,> 900
"Nc1ncc(-c2ccccc2F)cc1-c1ccc2c(c1)CCNC2=O [Compound I-3, 6-(2-amino-5-(2-fluorophenyl)pyridin-3-yl)-3,4-dihydroisoquinolin-1(2H)-one]",–,40 to 200 nM,> 900
"C#Cc1cc(F)c(-c2cnc(N)c(-c3ccc4c(c3)CCNC4=O)c2)cc1[N+](=O)[O-] [Compound I-45, 6-(2-amino-5-(4-ethynyl-2-fluoro-5-nitrophenyl)pyridin-3-yl)-3,4-dihydroisoquinolin-1(2H)-one]",–,40 to 200 nM,–
"Nc1ncc(-c2ccc(NS(=O)(=O)C3CC3)cc2OC2CCCC2)cc1-c1ccc2c(c1)CCNC2=O [Compound I-69, N-(4-(6-amino-5-(1-oxo-1,2,3,4-tetrahydroisoquinolin-6-yl)pyridin-3-yl)-3-(cyclopentyloxy)phenyl) cyclopropanesulfonamide]",–,< 40 nM,–
"COc1cc(C#N)ccc1-c1cnc(N)c(-c2ccc3c(c2)CCNC3=O)c1 [Compound I-61, 4-(6-amino-5-(1-oxo-1,2,3,4-tetrahydroisoquinolin-6-yl)pyridin-3-yl)-3-methoxybenzonitrile]",–,< 40 nM,–
"Nc1ncc(-c2cc([N+](=O)[O-])cnc2F)cc1-c1ccc2c(c1)CCNC2=O [Compound I-39, 6-(6-amino-2′-fluoro-5′-nitro-[3,3′-bipyridin]-5-yl)-3,4-dihydroisoquinolin-1(2H)-one]",–,200 to 900 nM,–
"COc1ccncc1-c1cnc(N)c(-c2ccc3c(c2)CCNC3=O)c1 [Compound I-8, 6-(6-amino-4′-methoxy-[3,3′-bipyridin]-5-yl)-3,4-dihydroisoquinolin-1(2H)-one]",–,> 900 nM,–
"Nc1ncc(-c2cc(F)cc([N+](=O)[O-])c2)cc1-c1ccc2c(c1)CCNC2=O [Compound I-17, 6-(2-amino-5-(3-fluoro-5-nitrophenyl)pyridin-3-yl)-3,4-dihydroisoquinolin-1(2H)-one]",–,40 to 200 nM,–
"NC(=O)c1ccc(-c2cc(-c3cc([N+](=O)[O-])ccc3F)cnc2N)cc1 [Compound I-31, 4-(2-amino-5-(2-fluoro-5-nitrophenyl)pyridin-3-yl)benzamide]",–,200 to 900 nM,–
"Nc1ncc(-c2cccc3scnc23)cc1-c1ccc2c(c1)CCNC2=O [Compound I-55, 6-(2-amino-5-(benzo[d]thiazol-4-yl)pyridin-3-yl)-3,4-dihydroisoquinolin-1(2H)-one]",–,40 to 200 nM,–
"Nc1ncc(-c2cc(F)ccc2[N+](=O)[O-])cc1-c1ccc2c(c1)CCNC2=O [Compound I-7, 6-(2-amino-5-(5-fluoro-2-nitrophenyl)pyridin-3-yl)-3,4-dihydroisoquinolin-1(2H)-one]",–,> 900 nM,–
"CN(C1CC1)S(=O)(=O)c1ccc(-c2cnc(N)c(-c3ccc4c(=O)[nH]cnc4c3)c2)c(F)c1 [Compound I-63, 4-(6-amino-5-(4-oxo-3,4-dihydroquinazolin-7-yl)pyridin-3-yl)-N-cyclopropyl-3-fluoro-N-methylbenzenesulfonamide]",–,< 40 nM,–
"Nc1ncc(-c2ccc([N+](=O)[O-])cc2F)cc1-c1ccc2c(c1)CCNC2=O [Compound I-54, 6-(2-amino-5-(2-fluoro-4-nitrophenyl)pyridin-3-yl)-3,4-dihydroisoquinolin-1(2H)-one]",–,40 to 200 nM,–
"CN(C1CC1)S(=O)(=O)c1ccc(-c2cnc(N)c(-c3ccc4c(c3)CNC4=O)c2)c(F)c1 [Compound I-74, 4-(6-amino-5-(1-oxoisoindolin-5-yl)pyridin-3-yl)-N-cyclopropyl-3-fluoro-N-methylbenzenesulfonamide]",< 40,< 40 nM and 40 to 200 nM,> 900
"Nc1ncc(-c2ccc(F)c3ncsc23)cc1-c1ccc2c(c1)CCNC2=O [Compound I-57, 6-(2-amino-5-(4-fluorobenzo[d]thiazol-7-yl)pyridin-3-yl)-3,4-dihydroisoquinolin-1(2H)-one]",–,< 40 nM,–
"COc1cc(S(=O)(=O)N(C)C2CC2)ccc1-c1cnc(N)c(-c2ccc3c(c2)CCNC3=O)c1 [Compound I-72, 4-(6-amino-5-(1-oxo-1,2,3,4-tetrahydroisoquinolin-6-yl)pyridin-3-yl)-N-cyclopropyl-3-methoxy-N-methylbenzenesulfonamide]",< 40,< 40 nM,40 to 200
"Nc1ncc(-c2cccc([N+](=O)[O-])c2)cc1-c1ccc2c(c1)CCNC2=O [Compound I-2, 6-(2-amino-5-(3-nitrophenyl)pyridin-3-yl)-3,4-dihydroisoquinolin-1(2H)-one]",–,< 40 nM,> 900
"Nc1ncc(-c2cc([N+](=O)[O-])ccc2Cl)cc1-c1ccc2c(c1)CCNC2=O [Compound I-4, 6-(2-amino-5-(2-chloro-5-nitrophenyl)pyridin-3-yl)-3,4-dihydroisoquinolin-1(2H)-one]",–,> 900 nM,> 900
"Nc1ncc(-c2cncc3ncsc23)cc1-c1ccc2c(c1)CCNC2=O [Compound I-56, 6-(2-amino-5-(thiazolo[4,5-c]pyridin-7-yl)pyridin-3-yl)-3,4-dihydroisoquinolin-1(2H)-one]",–,200 to 900 nM,–
"COc1cc(S(=O)(=O)N(C)C2CCOCC2)ccc1-c1cnc(N)c(-c2ccc3c(c2)CCNC3=O)c1 [Compound I-53, 4-(6-amino-5-(1-oxo-1,2,3,4-tetrahydroisoquinolin-6-yl)pyridin-3-yl)-3-methoxy-N-methyl-N-(tetrahydro-2H-pyran-4-yl)benzenesulfonamide]",–,40 to 200 nM,–
"Nc1ncc(-c2ccc3ncsc3c2)cc1-c1ccc2c(c1)CCNC2=O [Compound I-44, 6-(2-amino-5-(benzo[d]thiazol-6-yl)pyridin-3-yl)-3,4-dihydroisoquinolin-1(2H)-one]",–,40 to 200 nM,–
"Nc1ncc(-c2ccc(F)c3ncsc23)cc1-c1ccc2c(c1)CNC2=O [Compound I-70, 5-(2-amino-5-(4-fluorobenzo[d]thiazol-7-yl)pyridin-3-yI)isoindolin-1-one]",–,40 to 200 nM,–
"Cn1cnc2c(-c3cnc(N)c(-c4ccc5c(c4)CCNC5=O)c3)cccc21 [Compound I-14, 6-(2-amino-5-(1-methyl-1H-benzo[d]imidazol-4-yl)pyridin-3-yl)-3,4-dihydroisoquinolin-1(2H)-one]",–,40 to 200 nM,–
"N#Cc1cccc(-c2cnc(N)c(-c3ccc4c(c3)CCNC4=O)c2)c1 [Compound I-75, 3-(6-amino-5-(1-oxo-1,2,3,4-tetrahydroisoquinolin-6-yl)pyridin-3-yl)benzonitrile]",40 to 200,40 to 200 nM,200 to 900
"Nc1ncc(-c2cccc(NS(=O)(=O)C3CC3)c2)cc1-c1ccc2c(c1)CCNC2=O [Compound I-58, N-(3-(6-amino-5-(1-oxo-1,2,3,4-tetrahydroisoquinolin-6-yl)pyridin-3-yl)phenyl) cyclopropanesulfonamide]",–,< 40 nM,–
"Nc1ncc(-c2cnccc2F)cc1-c1ccc2c(c1)CCNC2=O [Compound I-5, 6-(6-amino-4′-fluoro-[3,3′-bipyridin]-5-yl)-3,4-dihydroisoquinolin-1(2H)-one]",–,200 to 900 nM,> 900
"Nc1ncc(-c2cccc(-c3nccs3)c2)cc1-c1ccc2c(c1)CCNC2=O [Compound I-59, 6-(2-amino-5-(3-(thiazol-2-yl)phenyl)pyridin-3-yl)-3,4-dihydroisoquinolin-1(2H)-one]",–,< 40 nM,–
"CC(C)Oc1cc(S(=O)(=O)N(C)C2CC2)ccc1-c1cnc(N)c(-c2ccc3c(c2)CCNC3=O)c1 [Compound I-48, 4-(6-amino-5-(1-oxo-1,2,3,4-tetrahydroisoquinolin-6-yl)pyridin-3-yl)-N-cyclopropyl-3-isopropoxy-N-methylbenzenesulfonamide]",–,< 40 nM,–
"CCNC(=O)c1ccc(F)c(-c2cnc(N)c(-c3ccc4c(c3)CCNC4=O)c2)c1 [Compound I-6, 3-(6-amino-5-(1-oxo-1,2,3,4-tetrahydroisoquinolin-6-yl)pyridin-3-yl)-N-ethyl-4-fluorobenzamide]",–,> 900 nM,> 900
"CC(C)Oc1cc(S(=O)(=O)N(C)C2CC2)ccc1-c1cnc(N)c(-c2ccc3c(c2)CNC3=O)c1 [Compound I-68, 4-(6-amino-5-(1-oxoisoindolin-5-yl)pyridin-3-yl)-N-cyclopropyl-3-isopropoxy-N-methylbenzenesulfonamide]",–,< 40 nM,–
